Data as given in patent publication US10851067B2, “Kv7 channel activators compositions and methods of use” (Knopp Biosciences LLC, priority 2018, dated 2020).

Target: Kv7.2/7.3 (Homo sapiens, UniProt O43525+O43526)
Test: Kv7.2/7.3 Activation Assay, QPatch single concentration screen
Type: cell-based
Set-up: host or cells: HEK cells, tetracycline-inducible expression; key: 1.2-2.9 (+); 3-3.9 (++); >4 (+++) fold increase over baseline; O represents open channel at holding potential
Conditions: Kv7.2/Kv7.3 co-expressing HEK cells, compound concentration 3 μM, steady-state current at end of 2 s pulse to −30 mV
How it was run: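 Tetracycline-induced HEK cells expressing human Kv7.2/7.3, recorded 24 h post-induction by automated planar patch clamp. From −80 mV, 2 s steps to −30 mV then 100 ms to −120 mV; compound tested at 3 μM (0.1% DMSO). Steady-state current at end of −30 mV step gives fold increase over baseline.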

CC(C)(C)CC(=O)Nc1nc2c(F)cc(C#N)cc2n1C1CCC1 [Example 411, N-(6-cyano-1-cyclobutyl-4-fluoro-1H-benzo[d]imidazol-2-yl)-3,3-dimethylbutanamide]
Kv7.2/7.3 Activity: increase over baseline in current: +++ (>4 (+++) fold increase over baseline)

CC(C)(CC(=O)Nc1nc2c(F)cc(OC(F)F)cc2n1C1(C)CCC1)C1CC1 [Example 338, 3-cyclopropyl-N-(6-(difluoromethoxy)-4-fluoro-1-(1-methylcyclobutyl)-1H-benzo[d]imidazol-2-yl)-3-methylbutanamide]
Kv7.2/7.3 Activity: increase over baseline in current: +++ (>4 (+++) fold increase over baseline)

CC(C)(C)CC(=O)Nc1nc2c(F)cc(Br)cc2n1C1CCC1 [Example 343, N-(6-bromo-1-cyclobutyl-4-fluoro-1H-benzo[d]imidazol-2-yl)-3,3-dimethylbutanamide]
Kv7.2/7.3 Activity: increase over baseline in current: +++ (>4 (+++) fold increase over baseline)

CC(O)(CC(=O)Nc1nc2cc(F)c(C#N)cc2n1C1(C)CCC1)c1ccccc1F (single isomer, unassigned) [Example 478, N-(6-cyano-5-fluoro-1-(1-methylcyclobutyl)-1H-benzo[d]imidazol-2-yl)-3-(2-fluorophenyl)-3-hydroxybutanamide]
Kv7.2/7.3 Activity: increase over baseline in current: + (1.2-2.9 (+))

CC(C)(C)Cn1c(NC(=O)CC(C)(O)c2ccccc2)nc2ccc(C#N)cc21 (single isomer, unassigned) [Example 341, N-(6-cyano-1-neopentyl-1H-benzo[d]imidazol-2-yl)-3-hydroxy-3-phenylbutanamide]
Kv7.2/7.3 Activity: increase over baseline in current: + (1.2-2.9 (+))

CC(O)(CC(=O)Nc1nc2cccc(C#N)c2n1C1(C)CCC1)c1ccccc1 (single isomer, unassigned) [Example 375, N-(7-cyano-1-(1-methylcyclobutyl)-1H-benzo[d]imidazol-2-yl)-3-hydroxy-3-phenylbutanamide]
Kv7.2/7.3 Activity: increase over baseline in current: + (1.2-2.9 (+))

CC(CF)(CF)CC(=O)Nc1nc2ccc(C(C)(C)O)cc2n1C1CCC1 [Example 370, N-(1-cyclobutyl-6-(2-hydroxypropan-2-yl)-1H-benzo[d]imidazol-2-yl)-4-fluoro-3-(fluoromethyl)-3-methylbutanamide]
Kv7.2/7.3 Activity: increase over baseline in current: ++ (3-3.9 (++))

CC(C)(CC(=O)Nc1nc2ccc(C#N)c(F)c2n1C1CCC1)CC(F)(F)F [Example 345, N-(6-cyano-1-cyclobutyl-7-fluoro-1H-benzo[d]imidazol-2-yl)-5,5,5-trifluoro-3,3-dimethylpentanamide]
Kv7.2/7.3 Activity: increase over baseline in current: + (1.2-2.9 (+))

CC(C)(C)n1c(NC(=O)CC(C)(C)C(F)(F)F)nc2c(F)cc(C#N)c(F)c21 [Example 349, N-(1-(tert-butyl)-6-cyano-4,7-difluoro-1H-benzo[d]imidazol-2-yl)-4,4,4-trifluoro-3,3-dimethylbutanamide]
Kv7.2/7.3 Activity: increase over baseline in current: ++ (3-3.9 (++))

CC1(n2c(NC(=O)CC(C)(C)C(F)(F)F)nc3cc(F)cc(C#N)c32)CCC1 [Example 340, N-(7-cyano-5-fluoro-1-(1-methylcyclobutyl)-1H-benzo[d]imidazol-2-yl)-4,4,4-trifluoro-3,3-dimethylbutanamide]
Kv7.2/7.3 Activity: increase over baseline in current: + (1.2-2.9 (+))

CC(C)(C)n1c(NC(=O)CC(C)(C)C(F)(F)F)nc2ccc(C#N)c(F)c21 [Example 444, N-(1-(tert-butyl)-6-cyano-7-fluoro-1H-benzo[d]imidazol-2-yl)-4,4,4-trifluoro-3,3-dimethylbutanamide]
Kv7.2/7.3 Activity: increase over baseline in current: ++ (3-3.9 (++))

CC(C)(C)CC(=O)Nc1nc2cc(C(C)(C)O)c(C(F)(F)F)cc2n1C1CCC1 [Example 450, N-(1-cyclobutyl-5-(2-hydroxypropan-2-yl)-6-(trifluoromethyl)-1H-benzo[d]imidazol-2-yl)-3,3-dimethylbutanamide]
Kv7.2/7.3 Activity: increase over baseline in current: + (1.2-2.9 (+))

CC(C)(C)CC(=O)Nc1nc2cc(F)c(C#N)cc2n1C1(C)CCC1 [Example 437, N-(6-cyano-5-fluoro-1-(1-methylcyclobutyl)-1H-benzo[d]imidazol-2-yl)-3,3-dimethylbutanamide]
Kv7.2/7.3 Activity: increase over baseline in current: ++ (3-3.9 (++))

CC(C)(CC(=O)Nc1nc2c(F)cc(OC(F)F)cc2n1C1CCC1)C1CC1 [Example 390, N-(1-cyclobutyl-6-(difluoromethoxy)-4-fluoro-1H-benzo[d]imidazol-2-yl)-3-cyclopropyl-3-methylbutanamide]
Kv7.2/7.3 Activity: increase over baseline in current: + (1.2-2.9 (+))

CC(C)(C)CC(=O)Nc1nc2ccc(F)cc2n1C1CCC1 [Example 417, N-(1-cyclobutyl-6-fluoro-1H-benzo[d]imidazol-2-yl)-3,3-dimethylbutanamide]
Kv7.2/7.3 Activity: increase over baseline in current: ++ (3-3.9 (++))

CC(C)(O)c1cc(F)c2nc(NC(=O)CC3CC(F)(F)C3(F)F)n(C3CCC3)c2c1 (single isomer, unassigned) [Example 400, N-(1-cyclobutyl-4-fluoro-6-(2-hydroxypropan-2-yl)-1H-benzo[d]imidazol-2-yl)-2-(2,2,3,3-tetrafluorocyclobutyl)acetamide]
Kv7.2/7.3 Activity: increase over baseline in current: +++ (>4 (+++) fold increase over baseline)

C[C@H](C(=O)Nc1nc2ccc(C(C)(C)O)cc2n1C12CC(C1)C2)C(C)(C)C [Example 455, (S)-N-(1-(bicyclo[1.1.1]pentan-1-yl)-6-(2-hydroxypropan-2-yl)-1H-benzo[d]imidazol-2-yl)-2,3,3-trimethylbutanamide]
Kv7.2/7.3 Activity: increase over baseline in current: ++ (3-3.9 (++))

C[C@H](C(=O)Nc1nc2ccc(C(C)(C)O)cc2n1CC(F)(F)F)C(C)(C)C [Example 407, (S)-N-(6-(2-hydroxypropan-2-yl)-1-(2,2,2-trifluoroethyl)-1H-benzo[d]imidazol-2-yl)-2,3,3-trimethylbutanamide]
Kv7.2/7.3 Activity: increase over baseline in current: ++ (3-3.9 (++))

CC(C)(C)CC(=O)Nc1nc2c(F)cc(C(O)(CF)CF)cc2n1C1CCC1 [Example 479, N-(1-cyclobutyl-6-(1,3-difluoro-2-hydroxypropan-2-yl)-4-fluoro-1H-benzo[d]imidazol-2-yl)-3,3-dimethylbutanamide]
Kv7.2/7.3 Activity: increase over baseline in current: ++ (3-3.9 (++))

CC(C)(O)c1cc(F)c2nc(NC(=O)CC3CC(F)(F)C3(F)F)n(C3CCC3)c2c1 (stereo not drawn) [Example 405, N-(1-cyclobutyl-4-fluoro-6-(2-hydroxypropan-2-yl)-1H-benzo[d]imidazol-2-yl)-2-(2,2,3,3-tetrafluorocyclobutyl)acetamide]
Kv7.2/7.3 Activity: increase over baseline in current: ++ (3-3.9 (++))

COc1cc(F)c2nc(NC(=O)CC(C)(C)C(F)(F)F)n(C3(C)CCC3)c2c1 [Example 433, 4,4,4-trifluoro-N-(4-fluoro-6-methoxy-1-(1-methylcyclobutyl)-1H-benzo[d]imidazol-2-yl)-3,3-dimethylbutanamide]
Kv7.2/7.3 Activity: increase over baseline in current: ++ (3-3.9 (++))

COC(=O)Cc1c(F)ccc2nc(NC(=O)CC(C)(C)C)n(C3CCC3)c12 [Example 447, methyl 2-(1-cyclobutyl-2-(3,3-dimethylbutanamido)-6-fluoro-1H-benzo[d]imidazol-7-yl)acetate]
Kv7.2/7.3 Activity: increase over baseline in current: +++ (>4 (+++) fold increase over baseline)

[2H]C([2H])([2H])C(CC(=O)Nc1nc2ccc(C(C)(C)O)cc2n1C1CCC1)(C([2H])([2H])[2H])C([2H])([2H])[2H] [Example 448, N-(1-cyclobutyl-6-(2-hydroxypropan-2-yl)-1H-benzo[d]imidazol-2-yl)-3,3-bis(methyl-d3)butanamide]
Kv7.2/7.3 Activity: increase over baseline in current: ++ (3-3.9 (++))

[2H]C([2H])([2H])C(CC(=O)Nc1nc2c(F)cc(C(C)(C)O)cc2n1C1CCC1)(C([2H])([2H])[2H])C([2H])([2H])[2H] [Example 342, N-(1-cyclobutyl-4-fluoro-6-(2-hydroxypropan-2-yl)-1H-benzo[d]imidazol-2-yl)-3,3-bis(methyl-d3)butanamide]
Kv7.2/7.3 Activity: increase over baseline in current: +++ (>4 (+++) fold increase over baseline)

CC1(CC(=O)Nc2nc3c(F)cc(C(C)(C)O)cc3n2C2CCC2)CC1 [Example 403, N-(1-cyclobutyl-4-fluoro-6-(2-hydroxypropan-2-yl)-1H-benzo[d]imidazol-2-yl)-2-(1-methylcyclopropyl)acetamide]
Kv7.2/7.3 Activity: increase over baseline in current: ++ (3-3.9 (++))

CC(C)(C)CC(=O)Nc1nc2c(F)cc(OC(F)F)cc2n1C1(C)CCC1 [Example 459, N-(6-(difluoromethoxy)-4-fluoro-1-(1-methylcyclobutyl)-1H-benzo[d]imidazol-2-yl)-3,3-dimethylbutanamide]
Kv7.2/7.3 Activity: increase over baseline in current: +++ (>4 (+++) fold increase over baseline)

CC(C)(O)c1ccc2nc(NC(=O)Cc3cccc(F)c3)n(C3(C)CCC3)c2c1 [Example 435, 2-(3-fluorophenyl)-N-(6-(2-hydroxypropan-2-yl)-1-(1-methylcyclobutyl)-1H-benzo[d]imidazol-2-yl)acetamide]
Kv7.2/7.3 Activity: increase over baseline in current: O

CC(C)(C)CC(=O)Nc1nc2c(Cl)cc(C#N)cc2n1C1CCC1 [Example 377, N-(4-chloro-6-cyano-1-cyclobutyl-1H-benzo[d]imidazol-2-yl)-3,3-dimethylbutanamide]
Kv7.2/7.3 Activity: increase over baseline in current: +++ (>4 (+++) fold increase over baseline)

COc1cc(Br)cc2c1nc(NC(=O)CC(C)(C)C)n2C1CCC1 [Example 382, N-(6-bromo-1-cyclobutyl-4-methoxy-1H-benzo[d]imidazol-2-yl)-3,3-dimethylbutanamide]
Kv7.2/7.3 Activity: increase over baseline in current: +++ (>4 (+++) fold increase over baseline)

CC(O)(CC(=O)Nc1nc2ccc(C#N)cc2n1CC1CC1)c1ccccc1 (single isomer, unassigned) [Example 428, N-(6-cyano-1-(cyclopropylmethyl)-1H-benzo[d]imidazol-2-yl)-3-hydroxy-3-phenylbutanamide]
Kv7.2/7.3 Activity: increase over baseline in current: ++ (3-3.9 (++))
